Source: patent US20100210558A1, “MINIGASTRIN AS A THERAPEUTIC AGENT” (priority 2007, published 2010)
Where no end group is shown, it is not given here.

Tested on: drug-resistant Mycobacterium tuberculosis
Conditions: 5 micrograms per ml

LEEEEEAYGWMDF-NH2 [Minigastrin I]
% inhibition: 0.0%
